Patent publication US7449495B2, “Retinoid derivatives with antiangiogenic, antitumoral and proapoptotic activities” (Sigma-Tau Industrie Farmaceutiche Riunite S.p.A., priority 2001, dated 2008)

Tests used:
[1] = tested on: Human ovarian carcinoma A2780; experiment: Cytotoxicity test (sulphorodamine B), A2780; format: cell-based; conditions: 24 h incubation, survival 48 h after removal
Source text: (§1) Different cell lines deriving from solid tumors were also used. • 1. Human prostate carcinoma PC3 and DU145. These cell lines were maintained in RPMI 1640 medium containing 10% FCS, 1% sodium pyruvate and 1% glutamine; • 2. Human colon adenocarcinoma LoVo. This cell line was maintained in HAM's F-12 medium, containing 10% FCS and 1% glutamine. • 3. Human ovarian carcinoma such as A2780 and A2780/Dx, sensitive and resistant to drugs, respectively (doxorubicin, taxol, etoposide, vincristine); IGROV-1 and IGROV-1/Pt, sensitive and resistant to platinum-based chemotherapy, respectively, were maintained in RPMI 1640 medium containing 10% FCS, 1% sodium pyruvate and 1% glutamine; • 4. Human melanoma MeWo and MeS 2.21, glioblastoma GBM, no small cell lung carcinomas A431, NCI—H460, osteosarcomas SAOS and U2OS were maintained in RPMI 1640 medium containing 10% FCS, 1% sodium pyruvate and 1% glutamine.
(§2) The cytotoxicity tests were carried out using NB4 or HL-60 cells in suspension (10000/well). The cells were seeded in a volume of 250 μl in 96 well plates and incubated for 24 hours at 37° C. […] The optical density was measured using a Multiskan spectrophotometer at 540 nm. […]
(§3) Cell survival was determined by incubation with ST1926 for 24 hours, 48 hours after the removal of the compound. […]

[2] = tested on: human prostate carcinoma PC3 cells; experiment: Cyto-fluorometric cell cycle analysis, PC3; format: cell-based; set-up: key to APOPTOSIS: % of cells (cell cycle phase percentages)
Description: To evaluate the effect of the compound according to the invention, on various phases of the cell cycle, cyto-fluorometric cell cycle analyses were performed.
On the third day of treatment 500.000 cells were sampled, centrifuged at 180×g for 5 minutes, washed twice in calcium and magnesium free PBS. The cells (1×10^6/ml of fixative) were fixed for at least 1 hour in a fixation mixture comprised of acetone/methanol 1:4 v/v maintained at −20° C. and 50% of calcium and magnesium free PBS; then the cells were centrifuged, washed in calcium and magnesium free PBS, and again centrifuged and washed. The cellular precipitate was incubated for 30 minutes in the dark at room temperature with 200 μl of […] (100 μg/ml) and 200 μl of RNAse (150 KU/mg).
The samples with filtered through nylon filters (60-80 μm diameter) and analysed by cyto-fluorimeter FACScan (Becton Dickinson), acquiring 20000 events/sample, at an excitation wavelength of 488 nm and emission wavelength of 620 nm. The analysis of the percentages of the cell cycle phases was performed using a dedicated software package, Modfit v. 2.0 (Becton Dickinson).
For the cell cycle analysis of prostate carcinoma cells PC3, the cells were seeded in plates at a density of 500000 cells/ml in RPMI medium. After treatment with compound ST1926 for 24 hours, cells were analysed as described above.

[3] = tested on: vitamin-A deficient hamster trachea in organ culture; conditions: cited from earlier work
[4] = tested on: Human ovarian carcinoma IGROV-1; experiment: Cytotoxicity test (sulphorodamine B), IGROV-1; format: cell-based; conditions: 24 h incubation, survival 48 h after removal
Source text: as §1, §2, §3

[5] = tested on: Human ovarian carcinoma A2780/Dx (drug resistant); experiment: Cytotoxicity test (sulphorodamine B), A2780/Dx; format: cell-based; conditions: 24 h incubation, survival 48 h after removal
Source text: as §1, §2, §3

[6] = tested on: F9 embryonic teratocarcinoma cells; conditions: cited from earlier work
[7] = PC3, 0.02 μM, 24 hours of treatment and 0 hours of recovery
[8] = PC3, 0.02 μM, 24 hours of treatment and 24 hours of recovery
[9] = PC3, 0.05 μM, 24 hours of treatment and 0 hours of recovery
[10] = PC3, 0.05 μM, 24 hours of treatment and 24 hours of recovery
[11] = PC3, 0.1 μM, 24 hours of treatment and 0 hours of recovery
[12] = PC3, 0.1 μM, 24 hours of treatment and 24 hours of recovery
[13] = PC3, 0.2 μM, 24 hours of treatment and 24 hours of recovery

**Q.** For `O=C(O)/C=C/c1ccc(-c2ccc(O)c(C34CC5CC(CC(C5)C3)C4)c2)cc1` [ST1926, E-4-(3-(1-adamantyl)-4-hydroxyphenyl)cinnamic acid], which IC50 [1] is on record?
**A.** 100 nM

**Q.** What about the APOPTOSIS [2, 7] of the same compound?
**A.** 9

**Q.** What about the G0/G1 [2, 7] of the same compound?
**A.** 54.0

**Q.** And the “G2 + M” value [2, 7]?
**A.** 21.8

**Q.** And the S [2, 7]?
**A.** 24.2

**Q.** What about the APOPTOSIS [2, 8] of the same compound?
**A.** 13

**Q.** And the G0/G1 [2, 8]?
**A.** 44.6

**Q.** And the “G2 + M” value [2, 8]?
**A.** 25.0

**Q.** And the S [2, 8]?
**A.** 30.4

**Q.** And the APOPTOSIS [2, 9]?
**A.** 11

**Q.** And the G0/G1 [2, 9]?
**A.** 55.8

**Q.** What about the “G2 + M” value [2, 9] of the same compound?
**A.** 20.6

**Q.** What about the S [2, 9] of the same compound?
**A.** 23.6

**Q.** And the APOPTOSIS [2, 10]?
**A.** 15

**Q.** And the G0/G1 [2, 10]?
**A.** 44.9

**Q.** What about the “G2 + M” value [2, 10] of the same compound?
**A.** 25.6

**Q.** And the S [2, 10]?
**A.** 29.5

**Q.** What about the APOPTOSIS [2, 11] of the same compound?
**A.** 10

**Q.** What about the G0/G1 [2, 11] of the same compound?
**A.** 52.0

**Q.** What about the “G2 + M” value [2, 11] of the same compound?
**A.** 28.0

**Q.** And the S [2, 11]?
**A.** 35.4

**Q.** What about the APOPTOSIS [2, 12] of the same compound?
**A.** 10

**Q.** And the G0/G1 [2, 12]?
**A.** 45.8

**Q.** And the “G2 + M” value [2, 12]?
**A.** 28.4

**Q.** What about the S [2, 12] of the same compound?
**A.** 25.8

**Q.** And the APOPTOSIS ([2]; PC3, 0.2 μM, 24 hours of treatment and 0 hours of recovery)?
**A.** 13.5

**Q.** What about the APOPTOSIS [2, 13] of the same compound?
**A.** 13

**Q.** And the G0/G1 [2, 13]?
**A.** 31.8

**Q.** What about the “G2 + M” value [2, 13] of the same compound?
**A.** 25.0

**Q.** And the S [2, 13]?
**A.** 43.2

**Q.** And the “effect on PC3 cells at the end of treatment (in words)” value ([2]; PC3, 0.4 μM, 24 hours of treatment)?
**A.** induced apoptosis

**Q.** What about the APOPTOSIS ([2]; PC3, 0.4 μM, 24 hours of treatment and 0 hours of recovery) of the same compound?
**A.** 25

**Q.** What about the APOPTOSIS ([2]; PC3, 0.4 μM, 24 hours of treatment and 24 hours of recovery) of the same compound?
**A.** 26

**Q.** What about the “activity in the TOC assay compared with compound 1 (in words)” value [3] of the same compound?
**A.** lower activities

**Q.** What about the IC50 [4] of the same compound?
**A.** 230 nM

**Q.** What about the IC50 [5] of the same compound?
**A.** 200 nM

**Q.** What about the “activity in the F9 assay compared with compound 1 (in words)” value [6] of the same compound?
**A.** lower activities
